Laboratory results taken from paper doi:10.1101/2021.09.30.462449v1 (biorxiv, 2021).

How the values were obtained:
Assay in all cases: biochemical
[1] = molecular target: ACVR1 (ALK2) R206H (Homo sapiens, UniProt Q04771, R206H); conditions: read-out: % inhibition mean (Lanthascreen)
[2] = molecular target: ADCK3 (Homo sapiens, UniProt Q8NI60); conditions: read-out: % inhibition mean (Lanthascreen)
[3] = molecular target: AMPK (A1/B2/G1) (Homo sapiens, UniProt Q13131); conditions: read-out: % inhibition mean (Lanthascreen)
[4] = molecular target: CDC7/DBF4 (Homo sapiens, UniProt O00311); conditions: read-out: % inhibition mean (Lanthascreen)
[5] = molecular target: CDK14 (PFTK1)/cyclin Y (Homo sapiens, UniProt O94921); conditions: read-out: % inhibition mean (Lanthascreen)
[6] = molecular target: DDR1 (Homo sapiens, UniProt Q08345); conditions: read-out: % inhibition mean (Lanthascreen)
DDR1, sequence (Q08345 whole entry): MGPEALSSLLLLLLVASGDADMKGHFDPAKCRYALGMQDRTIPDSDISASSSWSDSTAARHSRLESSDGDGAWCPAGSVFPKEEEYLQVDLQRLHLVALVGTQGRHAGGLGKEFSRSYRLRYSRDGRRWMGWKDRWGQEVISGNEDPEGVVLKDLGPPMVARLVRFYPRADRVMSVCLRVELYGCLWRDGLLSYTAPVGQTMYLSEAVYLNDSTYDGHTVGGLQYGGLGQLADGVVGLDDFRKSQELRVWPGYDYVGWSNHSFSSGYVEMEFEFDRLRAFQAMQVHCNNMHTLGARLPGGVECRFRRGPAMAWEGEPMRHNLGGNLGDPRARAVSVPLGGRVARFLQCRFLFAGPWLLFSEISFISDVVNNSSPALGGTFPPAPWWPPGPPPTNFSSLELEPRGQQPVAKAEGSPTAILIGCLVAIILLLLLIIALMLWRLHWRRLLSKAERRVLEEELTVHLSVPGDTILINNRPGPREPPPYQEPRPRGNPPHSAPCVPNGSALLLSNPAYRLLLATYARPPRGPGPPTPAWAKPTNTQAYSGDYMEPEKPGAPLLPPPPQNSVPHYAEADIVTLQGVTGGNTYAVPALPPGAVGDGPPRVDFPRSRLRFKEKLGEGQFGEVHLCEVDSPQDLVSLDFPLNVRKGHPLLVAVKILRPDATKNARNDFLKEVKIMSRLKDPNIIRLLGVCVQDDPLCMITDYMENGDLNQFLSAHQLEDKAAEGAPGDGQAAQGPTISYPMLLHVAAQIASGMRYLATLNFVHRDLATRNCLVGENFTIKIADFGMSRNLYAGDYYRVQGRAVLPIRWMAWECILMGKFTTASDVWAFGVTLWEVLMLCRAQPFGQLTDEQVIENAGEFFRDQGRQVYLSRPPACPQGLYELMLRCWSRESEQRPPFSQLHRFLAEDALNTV

[7] = molecular target: DDR2 T654M (Homo sapiens, UniProt Q16832, T654M); conditions: read-out: % inhibition mean (Lanthascreen)
[8] = molecular target: EPHA6 (Homo sapiens, UniProt Q9UF33); conditions: read-out: % inhibition mean (Lanthascreen)
[9] = molecular target: EPHA7 (Homo sapiens, UniProt Q15375); conditions: read-out: % inhibition mean (Lanthascreen)
[10] = molecular target: HUNK (Homo sapiens, UniProt P57058); conditions: read-out: % inhibition mean (Lanthascreen)
HUNK, sequence (P57058 whole entry): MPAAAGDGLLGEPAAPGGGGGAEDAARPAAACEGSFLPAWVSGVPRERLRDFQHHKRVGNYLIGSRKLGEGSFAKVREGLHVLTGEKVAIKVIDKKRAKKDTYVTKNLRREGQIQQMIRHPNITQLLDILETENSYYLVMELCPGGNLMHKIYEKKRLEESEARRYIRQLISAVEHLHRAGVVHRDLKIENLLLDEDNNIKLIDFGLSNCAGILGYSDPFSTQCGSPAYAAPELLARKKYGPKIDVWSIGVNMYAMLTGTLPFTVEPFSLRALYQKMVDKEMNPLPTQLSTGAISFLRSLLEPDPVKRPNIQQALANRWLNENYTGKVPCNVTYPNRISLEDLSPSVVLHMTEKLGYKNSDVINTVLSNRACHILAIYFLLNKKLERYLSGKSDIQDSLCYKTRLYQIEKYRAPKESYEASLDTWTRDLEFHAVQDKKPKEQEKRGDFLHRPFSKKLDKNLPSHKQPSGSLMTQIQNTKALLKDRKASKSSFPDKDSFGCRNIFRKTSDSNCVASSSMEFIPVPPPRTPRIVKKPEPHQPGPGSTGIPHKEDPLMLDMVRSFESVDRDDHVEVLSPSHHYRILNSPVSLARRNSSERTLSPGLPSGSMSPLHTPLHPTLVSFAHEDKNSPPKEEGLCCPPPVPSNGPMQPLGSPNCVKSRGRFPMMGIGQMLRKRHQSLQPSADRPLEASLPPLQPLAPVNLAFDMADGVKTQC

[11] = molecular target: ICK (Homo sapiens, UniProt Q9UPZ9); conditions: read-out: % inhibition mean (Lanthascreen)
[12] = molecular target: MAP2K6 (MKK6) (Homo sapiens, UniProt P52564); conditions: read-out: % inhibition mean (Lanthascreen)
[13] = molecular target: RAF1 (cRAF) Y340D Y341D (Homo sapiens, UniProt P04049, Y340D/Y341D); conditions: read-out: % inhibition mean (Lanthascreen)
[14] = molecular target: RET V804M (Homo sapiens, UniProt P07949, V804M); conditions: read-out: % inhibition mean (Lanthascreen)
[15] = molecular target: RIPK3 (Homo sapiens, UniProt Q9Y572); conditions: read-out: % inhibition mean (Lanthascreen)
[16] = molecular target: STK17A (DRAK1) (Homo sapiens, UniProt Q9UEE5); conditions: read-out: % inhibition mean (Lanthascreen)
STK17A (DRAK1), sequence (Q9UEE5 whole entry): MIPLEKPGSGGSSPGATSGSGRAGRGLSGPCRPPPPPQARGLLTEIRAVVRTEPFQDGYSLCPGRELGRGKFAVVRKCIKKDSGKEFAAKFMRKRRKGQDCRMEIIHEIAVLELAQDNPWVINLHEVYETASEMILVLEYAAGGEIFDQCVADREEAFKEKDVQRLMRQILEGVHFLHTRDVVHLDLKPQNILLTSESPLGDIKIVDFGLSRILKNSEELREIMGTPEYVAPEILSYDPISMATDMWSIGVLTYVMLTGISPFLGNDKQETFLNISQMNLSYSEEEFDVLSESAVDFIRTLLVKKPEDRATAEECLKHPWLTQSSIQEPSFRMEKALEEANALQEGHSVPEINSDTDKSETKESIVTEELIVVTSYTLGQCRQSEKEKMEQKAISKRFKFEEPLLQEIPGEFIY

[17] = molecular target: STK17B (DRAK2) (Homo sapiens, UniProt O94768); conditions: read-out: % inhibition mean (Lanthascreen)
STK17B (DRAK2), sequence (O94768 whole entry): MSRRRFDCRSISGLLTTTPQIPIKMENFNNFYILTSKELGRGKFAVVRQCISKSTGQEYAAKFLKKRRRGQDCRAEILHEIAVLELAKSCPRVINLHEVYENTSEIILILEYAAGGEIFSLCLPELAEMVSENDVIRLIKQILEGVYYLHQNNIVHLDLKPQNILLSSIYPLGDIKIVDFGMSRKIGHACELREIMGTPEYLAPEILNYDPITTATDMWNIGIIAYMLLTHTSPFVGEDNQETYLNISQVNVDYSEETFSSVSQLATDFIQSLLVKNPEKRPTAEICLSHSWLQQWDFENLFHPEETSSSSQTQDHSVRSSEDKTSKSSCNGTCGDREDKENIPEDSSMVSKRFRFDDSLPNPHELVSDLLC

[18] = molecular target: STK32B (YANK2) (Homo sapiens, UniProt Q9NY57); conditions: read-out: % inhibition mean (Lanthascreen)
[19] = molecular target: TEK (TIE2) Y1108F (Homo sapiens, UniProt Q02763, Y1108F); conditions: read-out: % inhibition mean (Lanthascreen)
[20] = molecular target: ULK3 (Homo sapiens, UniProt Q6PHR2); conditions: read-out: % inhibition mean (Lanthascreen)
[21] = molecular target: ABL1 F317L (Homo sapiens, UniProt P00519, F317L); conditions: read-out: % inhibition mean (Z'Lyte)
ABL1 F317L, sequence (P00519 whole entry F317L): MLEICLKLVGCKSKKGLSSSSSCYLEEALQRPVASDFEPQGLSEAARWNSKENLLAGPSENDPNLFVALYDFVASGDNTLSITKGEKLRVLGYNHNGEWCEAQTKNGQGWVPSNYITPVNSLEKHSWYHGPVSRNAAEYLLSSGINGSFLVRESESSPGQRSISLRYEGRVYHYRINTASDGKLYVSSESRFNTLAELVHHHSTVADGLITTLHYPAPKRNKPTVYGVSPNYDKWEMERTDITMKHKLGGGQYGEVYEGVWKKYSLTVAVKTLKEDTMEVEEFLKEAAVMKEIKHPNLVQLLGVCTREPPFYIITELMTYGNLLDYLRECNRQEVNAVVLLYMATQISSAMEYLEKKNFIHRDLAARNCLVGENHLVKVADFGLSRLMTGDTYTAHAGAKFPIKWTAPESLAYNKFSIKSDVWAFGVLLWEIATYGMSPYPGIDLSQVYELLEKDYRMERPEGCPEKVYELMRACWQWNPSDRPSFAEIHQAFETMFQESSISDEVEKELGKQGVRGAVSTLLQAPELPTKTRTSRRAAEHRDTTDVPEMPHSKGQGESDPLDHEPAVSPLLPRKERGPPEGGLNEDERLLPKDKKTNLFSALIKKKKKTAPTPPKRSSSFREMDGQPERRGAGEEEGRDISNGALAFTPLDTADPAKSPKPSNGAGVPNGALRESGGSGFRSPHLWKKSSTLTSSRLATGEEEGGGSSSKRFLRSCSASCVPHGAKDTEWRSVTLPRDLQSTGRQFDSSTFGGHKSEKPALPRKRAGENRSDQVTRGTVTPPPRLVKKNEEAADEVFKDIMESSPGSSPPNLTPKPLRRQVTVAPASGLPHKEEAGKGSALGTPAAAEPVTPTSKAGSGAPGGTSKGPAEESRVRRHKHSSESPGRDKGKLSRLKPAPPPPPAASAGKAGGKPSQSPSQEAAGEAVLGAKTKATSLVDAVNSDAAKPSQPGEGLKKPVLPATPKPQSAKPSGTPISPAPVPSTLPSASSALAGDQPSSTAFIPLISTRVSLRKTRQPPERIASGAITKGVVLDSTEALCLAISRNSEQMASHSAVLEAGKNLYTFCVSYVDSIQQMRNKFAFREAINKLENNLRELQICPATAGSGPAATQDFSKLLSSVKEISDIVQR

[22] = molecular target: AMPK (A1/B2/G2) (Homo sapiens, UniProt Q13131); conditions: read-out: % inhibition mean (Z'Lyte)
[23] = molecular target: CAMK2B (CaMKII beta) (Homo sapiens, UniProt Q13554); conditions: read-out: % inhibition mean (Z'Lyte)
[24] = molecular target: EPHB2 (Homo sapiens, UniProt P29323); conditions: read-out: % inhibition mean (Z'Lyte)
[25] = molecular target: FGFR1 (Homo sapiens, UniProt P11362); conditions: read-out: % inhibition mean (Z'Lyte)
FGFR1, sequence (P11362 whole entry): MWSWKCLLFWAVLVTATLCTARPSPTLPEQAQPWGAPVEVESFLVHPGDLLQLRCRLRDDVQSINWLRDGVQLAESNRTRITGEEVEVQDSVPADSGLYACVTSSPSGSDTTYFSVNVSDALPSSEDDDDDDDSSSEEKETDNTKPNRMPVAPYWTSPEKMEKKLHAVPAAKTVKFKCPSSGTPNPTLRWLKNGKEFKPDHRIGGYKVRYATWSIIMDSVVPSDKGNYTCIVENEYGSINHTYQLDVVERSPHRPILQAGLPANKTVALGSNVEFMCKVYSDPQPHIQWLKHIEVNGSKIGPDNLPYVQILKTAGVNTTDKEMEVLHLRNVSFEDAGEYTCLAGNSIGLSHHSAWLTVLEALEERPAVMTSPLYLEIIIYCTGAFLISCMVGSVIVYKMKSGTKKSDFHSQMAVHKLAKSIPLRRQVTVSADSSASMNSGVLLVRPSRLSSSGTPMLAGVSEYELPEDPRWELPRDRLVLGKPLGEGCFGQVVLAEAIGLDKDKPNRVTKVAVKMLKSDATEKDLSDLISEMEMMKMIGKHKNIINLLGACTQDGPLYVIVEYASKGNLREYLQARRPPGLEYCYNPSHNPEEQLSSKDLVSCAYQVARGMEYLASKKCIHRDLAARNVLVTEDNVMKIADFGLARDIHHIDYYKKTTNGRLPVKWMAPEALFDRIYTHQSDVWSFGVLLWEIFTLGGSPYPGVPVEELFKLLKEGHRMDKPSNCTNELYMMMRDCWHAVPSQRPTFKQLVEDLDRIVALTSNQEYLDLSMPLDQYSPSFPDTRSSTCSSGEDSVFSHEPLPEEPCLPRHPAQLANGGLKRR

[26] = molecular target: FLT3 D835Y (Homo sapiens, UniProt P36888, D835Y); conditions: read-out: % inhibition mean (Z'Lyte)
[27] = molecular target: TYK2 (Homo sapiens, UniProt P29597); conditions: read-out: % inhibition mean (Z'Lyte)
[28] = molecular target: STK33 (Homo sapiens, UniProt Q9BYT3); conditions: read-out: % inhibition mean (Lanthascreen)
STK33, sequence (Q9BYT3 whole entry): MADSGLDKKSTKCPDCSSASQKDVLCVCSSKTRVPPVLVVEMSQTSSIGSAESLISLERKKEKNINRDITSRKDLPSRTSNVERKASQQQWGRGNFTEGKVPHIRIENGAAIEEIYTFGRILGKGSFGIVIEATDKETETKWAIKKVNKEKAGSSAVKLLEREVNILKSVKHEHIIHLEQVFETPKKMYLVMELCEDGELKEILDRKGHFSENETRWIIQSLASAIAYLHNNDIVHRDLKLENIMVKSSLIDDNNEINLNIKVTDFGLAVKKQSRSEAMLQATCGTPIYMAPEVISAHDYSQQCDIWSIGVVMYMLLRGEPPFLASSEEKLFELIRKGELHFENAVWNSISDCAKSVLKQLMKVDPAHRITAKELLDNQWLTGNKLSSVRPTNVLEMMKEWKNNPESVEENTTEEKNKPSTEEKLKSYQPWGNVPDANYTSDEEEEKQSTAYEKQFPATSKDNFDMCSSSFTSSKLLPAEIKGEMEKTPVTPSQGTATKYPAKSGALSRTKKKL

Question: Which inhibition at 1 µM [1] does the source give for `COc1ccc2nc3cc(Cl)ccc3c(Nc3cc(CN4CCCC4)c(O)c(CN4CCCC4)c3)c2n1` [Pyronaridine, 4-[(7-Chloro-2-methoxybenzo[b][1,5]naphthyridin-10-yl)amino]-2,6-bis(1-pyrrolidinylmethyl)phenol phosphate (1:4)] here?
Answer: 2%

Question: What about the inhibition at 1 µM [2] of the same molecule?
Answer: -16%

Question: What about the inhibition at 1 µM [3] of the same molecule?
Answer: -2%

Question: What about the inhibition at 1 µM [4] of the same molecule?
Answer: -6%

Question: What about the inhibition at 1 µM [5] of the same molecule?
Answer: 14%

Question: What about the inhibition at 1 µM [6] of the same molecule?
Answer: -2%

Question: And the inhibition at 1 µM [7]?
Answer: -11%

Question: What about the inhibition at 1 µM [8] of the same molecule?
Answer: -3%

Question: What about the inhibition at 1 µM [9] of the same molecule?
Answer: -3%

Question: And the inhibition at 1 µM [10]?
Answer: -1%

Question: And the inhibition at 1 µM [11]?
Answer: 0%

Question: And the inhibition at 1 µM [12]?
Answer: 9%

Question: And the inhibition at 1 µM [13]?
Answer: -5%

Question: And the inhibition at 1 µM [14]?
Answer: -1%

Question: And the inhibition at 1 µM [15]?
Answer: -7%

Question: What about the inhibition at 1 µM [16] of the same molecule?
Answer: 1%

Question: And the inhibition at 1 µM [17]?
Answer: -4%

Question: And the inhibition at 1 µM [18]?
Answer: 0%

Question: And the inhibition at 1 µM [19]?
Answer: -2%

Question: What about the inhibition at 1 µM [20] of the same molecule?
Answer: 8%

Question: And the inhibition at 1 µM [21]?
Answer: -1%

Question: And the inhibition at 1 µM [22]?
Answer: -2%

Question: And the inhibition at 1 µM [23]?
Answer: 1%

Question: And the inhibition at 1 µM [24]?
Answer: 4%

Question: And the inhibition at 1 µM [25]?
Answer: -5%

Question: What about the inhibition at 1 µM [26] of the same molecule?
Answer: 2%

Question: What about the inhibition at 1 µM [27] of the same molecule?
Answer: 0%

Question: What about the inhibition at 1 µM [28] of the same molecule?
Answer: 11%
